Structures are written as SMILES. Structures can show the parent of a compound that is named as a salt. A value given as a limit tells only on which side of the number the result lay.

Chain of PIKFYVE (Q9Y2I7 whole entry): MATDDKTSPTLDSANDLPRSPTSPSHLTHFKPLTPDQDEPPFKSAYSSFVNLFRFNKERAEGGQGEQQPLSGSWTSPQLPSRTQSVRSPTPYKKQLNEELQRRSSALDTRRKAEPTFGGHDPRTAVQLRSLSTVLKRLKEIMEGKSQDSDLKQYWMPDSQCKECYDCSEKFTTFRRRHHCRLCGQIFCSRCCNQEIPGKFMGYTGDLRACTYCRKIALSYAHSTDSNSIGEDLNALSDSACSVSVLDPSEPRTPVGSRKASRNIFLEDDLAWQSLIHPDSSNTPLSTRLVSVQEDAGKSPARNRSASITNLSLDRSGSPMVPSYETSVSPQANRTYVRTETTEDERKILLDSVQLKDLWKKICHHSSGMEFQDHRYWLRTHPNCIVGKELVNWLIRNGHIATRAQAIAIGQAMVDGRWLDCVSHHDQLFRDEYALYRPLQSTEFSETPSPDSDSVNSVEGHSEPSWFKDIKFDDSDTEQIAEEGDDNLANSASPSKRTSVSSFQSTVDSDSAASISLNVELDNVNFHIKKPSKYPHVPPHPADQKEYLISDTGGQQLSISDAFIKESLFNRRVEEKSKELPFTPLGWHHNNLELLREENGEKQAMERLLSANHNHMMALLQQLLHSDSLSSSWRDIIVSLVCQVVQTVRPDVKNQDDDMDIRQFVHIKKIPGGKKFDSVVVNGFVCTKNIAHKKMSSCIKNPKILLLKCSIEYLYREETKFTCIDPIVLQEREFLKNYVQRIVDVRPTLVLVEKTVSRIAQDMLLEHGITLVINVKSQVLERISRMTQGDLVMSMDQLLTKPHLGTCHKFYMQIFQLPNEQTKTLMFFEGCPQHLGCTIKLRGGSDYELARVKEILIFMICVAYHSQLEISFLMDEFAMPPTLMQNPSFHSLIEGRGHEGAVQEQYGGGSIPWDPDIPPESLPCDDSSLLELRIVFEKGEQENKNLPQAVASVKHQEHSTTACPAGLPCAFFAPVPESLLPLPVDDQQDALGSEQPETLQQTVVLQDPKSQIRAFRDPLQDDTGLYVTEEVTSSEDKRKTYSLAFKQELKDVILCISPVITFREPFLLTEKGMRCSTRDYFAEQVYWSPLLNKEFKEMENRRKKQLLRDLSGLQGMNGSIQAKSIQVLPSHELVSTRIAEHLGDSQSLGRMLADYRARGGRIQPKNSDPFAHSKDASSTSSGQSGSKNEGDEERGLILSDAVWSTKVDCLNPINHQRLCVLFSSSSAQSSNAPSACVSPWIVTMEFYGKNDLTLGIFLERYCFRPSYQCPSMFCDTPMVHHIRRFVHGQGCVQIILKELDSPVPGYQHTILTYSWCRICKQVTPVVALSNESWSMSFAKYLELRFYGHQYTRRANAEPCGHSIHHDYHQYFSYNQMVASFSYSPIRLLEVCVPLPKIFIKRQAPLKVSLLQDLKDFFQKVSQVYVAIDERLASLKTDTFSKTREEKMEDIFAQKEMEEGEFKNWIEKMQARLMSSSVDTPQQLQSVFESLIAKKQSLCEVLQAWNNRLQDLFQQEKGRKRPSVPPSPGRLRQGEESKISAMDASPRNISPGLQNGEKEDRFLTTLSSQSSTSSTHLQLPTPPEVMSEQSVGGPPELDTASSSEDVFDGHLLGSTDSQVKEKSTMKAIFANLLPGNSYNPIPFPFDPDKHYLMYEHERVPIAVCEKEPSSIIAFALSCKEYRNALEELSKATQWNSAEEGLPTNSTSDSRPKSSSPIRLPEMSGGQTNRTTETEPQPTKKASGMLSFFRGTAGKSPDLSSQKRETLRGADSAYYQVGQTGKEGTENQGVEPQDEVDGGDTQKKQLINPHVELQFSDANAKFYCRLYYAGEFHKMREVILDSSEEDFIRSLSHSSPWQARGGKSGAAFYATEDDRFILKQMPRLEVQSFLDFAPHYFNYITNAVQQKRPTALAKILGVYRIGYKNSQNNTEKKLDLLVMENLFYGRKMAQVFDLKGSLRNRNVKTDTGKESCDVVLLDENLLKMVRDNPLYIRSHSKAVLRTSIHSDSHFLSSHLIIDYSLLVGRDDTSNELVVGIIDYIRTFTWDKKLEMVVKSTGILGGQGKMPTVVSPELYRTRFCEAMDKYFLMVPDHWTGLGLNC

One assay addresses PIKFYVE (Homo sapiens, UniProt Q9Y2I7). In words: PIKFYVE assay (luciferase ADP-Glo kinase assay, Promega). It is filed as biochemical. The settings on record: Table 1. The procedure:
The activity of Compounds 1-20 was measured using a PIKFYVE assay (luciferase ADP-Glo kinase assay available from Promega Corp. of Madison, Wis.).
The activity of Compounds 39-90 was also measured using a PIKFYVE assay (luciferase ADP-Glo kinase assay available from Promega Corp. of Madison, Wis.).
The activity of Compounds 93-347 was also measured using a PIKFYVE assay (luciferase ADP-Glo kinase assay available from Promega Corp. of Madison, Wis.).
The compound `COCCSc1cc(-n2ccc(-c3cccc(C)c3)n2)nc(OCC2CCCO2)n1` (stereo not shown) [Compound 18, 4-((2-methoxyethyl)thio)-2-((tetrahydrofuran-2-yl)methoxy)-6-(3-(m-tolyl)-1H-pyrazol-1-yl)pyrimidine] displayed an IC50 of 1000 to 10000 nM.

Staying with this assay, now noted: Table 2.
Compound `Clc1ccc(-c2ccn(-c3cc(N4CCOCC4)nc(OCCc4ccccn4)n3)n2)cc1` [Compound 40] yielded a 50% inhibitory concentration (IC50) of 101 to 1000 nM. Still for that read-out and setting: for `Fc1ccc(-c2cnn(-c3cc(N4CC[C@H]5OCC[C@H]54)nc(OCCc4ccccn4)n3)c2)cc1` [Compound 41] the value was 1000 to 10000 nM; for `Cc1cccc(-c2ccn(-c3cc(N4CCOCC4)nc(Cc4ccccc4)n3)n2)c1` [Compound 42], 101 to 1000 nM; for `c1cc(-c2cc(N3CCOCC3)nc(OCC3CCCO3)n2)n[nH]1` (stereo not shown) [Compound 45, 4-(6-(1H-pyrazol-3-yl)-2-((tetrahydrofuran-2-yl)methoxy)pyrimidin-4-yl)morpholine], 101 to 1000 nM. On the same count and under the same terms, for `Cc1cccc(-c2ccn(-c3cc(N4CCOCC4)nc(NCCc4ccccn4)n3)n2)c1` [Compound 46, 4-morpholino-N-(2-(pyridin-2-yl)ethyl)-6-(3-(m-tolyl)-1H-pyrazol-1-yl)pyrimidin-2-amine] the value was 5 to 100 nM; for `Cc1cccc(-c2ccn(-c3nc(NCCc4cnccn4)cc(N4CCOCC4)n3)n2)c1` [Compound 47], 5 to 100 nM. The same measure, in the same setting: next, `Cc1cccc(-c2ccn(-c3cc(N4CC[C@H]5OCC[C@H]54)nc(C(O)CO)n3)n2)c1` (stereo partly shown) [Compound 48]: 101 to 1000 nM; `COCC(O)c1nc(N2CCOCC2)cc(-n2ccc(-c3cccc(C)c3)n2)n1` (stereo not shown) [Compound 49]: 5 to 100 nM; `COC(CO)c1nc(N2CCOCC2)cc(-n2ccc(-c3cccc(C)c3)n2)n1` (stereo not shown) [Compound 50]: below 5 nM. In turn, `CC(C)(C)c1ccn(-c2cc(N3CCOCC3)nc(OCC(O)CO)n2)n1` (stereo not shown) [Compound 51] returned an IC50 of 1000 to 10000 nM.

For `OCC(O)COc1nc(N2CCOCC2)cc(-n2cc3ccccc3n2)n1` (stereo not shown) [Compound 52], the IC50 is 101 to 1000 nM. For `OCC(O)COc1nc(N2CCOCC2)cc(-n2ncc3ccccc32)n1` (stereo not shown) [Compound 53], the IC50 fell in the range of 101 to 1000 nM. On the same count and under the same terms, next, `Cc1cn(-c2cc(N3CCOCC3)nc(OCCc3cnn(C)c3)n2)nc1-c1ccccc1` [Compound 63, 4-(2-(2-(1-methyl-1H-pyrazol-4-yl)ethoxy)-6-(4-methyl-3-phenyl-1H-pyrazol-1-yl)pyrimidin-4-yl)morpholine]: 101 to 1000 nM. Compound `Cc1cccc(-c2ccn(-c3cc(N4CCOCC4)nc(NC(=O)Cc4cnn(C)c4)n3)n2)c1` [Compound 65] registered an IC50 below 5 nM.

In the case of `Cc1cccc(-c2ccn(-c3cc(N4CCOCC4)nc(OCC4(C)COC4)n3)n2)c1` [Compound 67], the concentration for half-maximal inhibition (IC50) is below 5 nM. The compound `Cn1cc(CCOc2nc(N3CCOCC3)cc(-n3ccc(-c4ccccc4)n3)n2)cn1` [Compound 73] yielded a half-maximal inhibitory concentration (IC50) below 5 nM.

Consider `OCc1nc(N2CCOCC2)cc(-n2ccc(-c3ccccc3)n2)n1` [Compound 84], for which the IC50 lay within 5 to 100 nM. Same read-out and setting: for `Cn1cc(CCOc2nc(N3CCOCC3)cc(-n3ccc(-c4cccc(CO)c4)n3)n2)cn1` [Compound 89] the value was below 5 nM.

Still in this assay, the particulars now being: Table 3.
Turning to `CO[C@H](CO)c1nc(N2CCOCC2)cc(-n2nc(-c3ccccc3)cc2C2CC2)n1` (single isomer, unassigned) [Compound 256], the IC50 fell in the range of 10 to 100 nM.

`CO[C@@H](CO)c1nc(N2CCOCC2)cc(-n2nc(-c3ccccc3)cc2C2CC2)n1` (single isomer, unassigned) [Compound 257] gave a 50% inhibitory concentration (IC50) of 10 to 100 nM. The same measure, in the same setting: for `CO[C@H](C)c1cccc(-c2ccn(-c3cc(N4CCOCC4)nc(OCCc4cnn(C)c4)n3)n2)c1` (single isomer, unassigned) [Compound 340] the value was 10 to 100 nM; for `CO[C@@H](CO)c1nc(N2CCOCC2)cc(-n2ccc(-c3cc(C)ccc3C)n2)n1` (single isomer, unassigned) [Compound 342], 10 to 100 nM. On the same count and under the same terms, for `CO[C@H](CO)c1nc(N2CCOCC2)cc(-n2ccc(-c3cc(C)ccc3C)n2)n1` (single isomer, unassigned) [Compound 343] the value was 10 to 100 nM; for `Cc1cccc(-c2ccn(-c3cc(N4CCOCC4)nc(N(C)CCc4ccccn4)n3)n2)c1` [Compound 91, N-methyl-4-morpholino-N-(2-(pyridin-2-yl)ethyl)-6-(3-(m-tolyl)-1H-pyrazol-1-yl)pyrimidin-2-amine], 3 to 10 nM; for `Cc1cccc(-c2ccn(-c3cc(N4CCOCC4)nc(OCCc4ccccn4)n3)n2)c1` [Compound 92, 4-(2-(2-(pyridin-2-yl)ethoxy)-6-(3-(m-tolyl)-1H-pyrazol-1-yl)pyrimidin-4-yl)morpholine], 3 to 10 nM. In turn, `Cc1cccc(-c2ccn(-c3cc(N4CC[C@H]5OCC[C@H]54)nc(C(O)CO)n3)n2)c1` (stereo partly drawn) [Compound 151, 1-(4-((3aR,6aR)-hexahydro-4H-furo[3,2-b]pyrrol-4-yl)-6-(3-(m-tolyl)-1H-pyrazol-1-yl)pyrimidin-2-yl)ethane-1,2-diol] returned an IC50 of 10 to 100 nM.

For `Cn1cc(CCOc2nc(N3CCOCC3)cc(-n3ccc(C4CCC4)n3)n2)cn1` [Compound 192, 4-(6-(3-cyclobutyl-1H-pyrazol-1-yl)-2-(2-(1-methyl-1H-pyrazol-4-yl)ethoxy)pyrimidin-4-yl)morpholine], the 50% inhibitory concentration (IC50) was 100 to 5000 nM. In turn, `Cn1cc(CCOc2nc(N3CCOCC3)cc(-n3ccc(C4CCCCC4)n3)n2)cn1` [Compound 196, 4-(6-(3-cyclohexyl-1H-pyrazol-1-yl)-2-(2-(1-methyl-1H-pyrazol-4-yl)ethoxy)pyrimidin-4-yl)morpholine] showed a concentration for half-maximal inhibition (IC50) above 5000 nM.

Take `CN(C)Cc1cc(-c2ccccc2)nn1-c1cc(N2CCOCC2)nc(OCC2(C)COC2)n1` [Compound 207, N,N-dimethyl-1-(1-(2-((3-methyloxetan-3-yl)methoxy)-6-morpholinopyrimidin-4-yl)-3-phenyl-1H-pyrazol-5-yl)methanamine]: the IC50 is 10 to 100 nM. The same measure, in the same setting: for `Cn1cc(CCOc2nc(Oc3cc(-c4ccccc4)n(C)n3)cc(N3CCOCC3)n2)cn1` [Compound 213, 4-(2-(2-(1-methyl-1H-pyrazol-4-yl)ethoxy)-6-((1-methyl-5-phenyl-1H-pyrazol-3-yl)oxy)pyrimidin-4-yl)morpholine] the value was 100 to 5000 nM. Same read-out and setting: for `CN(C)C(=O)c1cc(-c2ccccc2)nn1-c1cc(N2CCOCC2)nc(OCCc2cnn(C)c2)n1` [Compound 222, N,N-dimethyl-1-(2-(2-(1-methyl-1H-pyrazol-4-yl)ethoxy)-6-morpholinopyrimidin-4-yl)-3-phenyl-1H-pyrazole-5-carboxamide] the value was 100 to 5000 nM; for `Cc1cccc(-c2ccn(-c3nc4c(c(N5CCOCC5)n3)CN(CCc3ccn(C)n3)C4)n2)c1` [Compound 239, 4-(6-(2-(1-methyl-1H-pyrazol-3-yl)ethyl)-2-(3-(m-tolyl)-1H-pyrazol-1-yl)-6,7-dihydro-5H-pyrrolo[3,4-d]pyrimidin-4-yl)morpholine hydrochloride], 10 to 100 nM. The same measure, in the same setting: next, `Cc1cc(-c2ccccc2)nn1-c1nc2c(c(N3CCOCC3)n1)CN(CCc1ccn(C)n1)C2` [Compound 240, 4-(6-(2-(1-methyl-1H-pyrazol-3-yl)ethyl)-2-(5-methyl-3-phenyl-1H-pyrazol-1-yl)-6,7-dihydro-5H-pyrrolo[3,4-d]pyrimidin-4-yl)morpholine]: 100 to 5000 nM; `Cc1cc(-c2ccccc2)nn1-c1cc(N2CCOCC2)c2[nH]ccc2n1` [Compound 243, 4-(5-(5-methyl-3-phenyl-1H-pyrazol-1-yl)-1H-pyrrolo[3,2-b]pyridin-7-yl)morpholine]: 100 to 5000 nM. `Cn1cc(CCOc2nc(N3CCOCC3)cc(-n3ccc(-c4cccc5c4OCCN5)n3)n2)cn1` [Compound 244, 8-(1-(2-(2-(1-methyl-1H-pyrazol-4-yl)ethoxy)-6-morpholinopyrimidin-4-yl)-1H-pyrazol-3-yl)-3,4-dihydro-2H-benzo[b][1,4]oxazine]: the IC50 lay within 10 to 100 nM.

For `Cc1cccc(N2CC(C)N(c3cc(N4CCOCC4)nc(OCCc4cnn(C)c4)n3)C2=O)c1` (stereo not shown) [Compound 246, 4-methyl-3-(2-(2-(1-methyl-1H-pyrazol-4-yl)ethoxy)-6-morpholinopyrimidin-4-yl)-1-(m-tolyl)imidazolidin-2-one], the concentration for half-maximal inhibition (IC50) lay within 100 to 5000 nM. As for `Cc1cccc(-c2cn(C)n(-c3cc(N4CCOCC4)nc(OCCc4cnn(C)c4)n3)c2=O)c1` [Compound 247, 1-methyl-2-(2-(2-(1-methyl-1H-pyrazol-4-yl)ethoxy)-6-morpholinopyrimidin-4-yl)-4-(m-tolyl)-1,2-dihydro-3H-pyrazol-3-one], the half-inhibitory concentration (IC50) was in the range of 100 to 5000 nM.

`Cc1cccc(CC(=O)Nc2nc(OCCc3cnn(C)c3)cc(N3CCOCC3)n2)c1` [Compound 248, N-(4-(2-(1-methyl-1H-pyrazol-4-yl)ethoxy)-6-morpholinopyrimidin-2-yl)-2-(m-tolyl)acetamide] yielded a half-maximal inhibitory concentration (IC50) above 5000 nM. Turning to `Cc1cccc(CC(=O)Nc2cc(N3CCOCC3)nc(OCCc3cnn(C)c3)n2)c1` [Compound 249, N-(2-(2-(1-methyl-1H-pyrazol-4-yl)ethoxy)-6-morpholinopyrimidin-4-yl)-2-(m-tolyl)acetamide], the IC50 fell in the range of 100 to 5000 nM. On the same count and under the same terms, next, `Cc1cccc(CC(=O)N(C)c2nc(OCCc3cnn(C)c3)cc(N3CCOCC3)n2)c1` [Compound 250, N-methyl-N-(4-(2-(1-methyl-1H-pyrazol-4-yl)ethoxy)-6-morpholinopyrimidin-2-yl)-2-(m-tolyl)acetamide]: above 5000 nM; `Cc1cccc(-c2ccn(-c3nc(OCCc4cnn(C)c4)cc(N4CCOCC4)n3)n2)c1` [Compound 251, 4-(6-(2-(1-methyl-1H-pyrazol-4-yl)ethoxy)-2-(3-(m-tolyl)-1H-pyrazol-1-yl)pyrimidin-4-yl)morpholine]: 3 to 10 nM.

On to `CN(c1nc(OCCc2cnn(C)c2)cc(N2CCOCC2)n1)c1ncc2ccccc2n1` [Compound 252, N-methyl-N-(4-(2-(1-methyl-1H-pyrazol-4-yl)ethoxy)-6-morpholinopyrimidin-2-yl)quinazolin-2-amine], for which the IC50 is above 5000 nM.
